PMC6792352, “Limited Chemical Structural Diversity Found to Modulate Thyroid Hormone Receptor in the Tox21 Chemical Library” (Environmental Health Perspectives, 2019)
Counter-ions that a name gives are not always drawn.

Experiment: in vitro
Conditions: rat, gh3-tre-luc cells, AC50 (uM) modified / 1000
Compound `IC(I)=C(I)I` [Tetraiodoethene] has a CC50 at 24 h of 8.53 µM. In the case of `Cn1c(=O)c2[nH]c(Br)nc2n(C)c1=O` [8-Bromotheophylline], the CC50 at 24 h is reported as over 50 µM. For `O=C(O)c1ccc(CO)o1` [5-(Hydroxymethyl)-2-furoic acid], the CC50 at 24 h was over 90 µM. With `CC(C)C(C(=O)OC(C#N)c1cccc(Oc2ccccc2)c1)c1ccc(Cl)cc1` (stereo not shown) [Fenvalerate] the CC50 at 24 h was over 90 µM. For `CCCc1cc(C(N)=S)ccn1` [Prothionamide], the CC50 at 24 h was over 50 µM. In the case of `O=C(O)c1ccc(NC2OC[C@@H](O)[C@H](O)[C@H]2O)cc1` (stereo partly shown) [Benaxibine], the CC50 at 24 h is reported as over 50 µM. `Cc1ccccc1C(N)=O` [2-Methylbenzamide] gave a CC50 at 24 h of over 90 µM. For `CC[C@@H]1/C=C(\C)C[C@H](C)C[C@H](OC)[C@H]2O[C@@](O)(C(=O)C(=O)N3CCCC[C@H]3C(=O)O[C@H](/C(C)=C/[C@@H]3CC[C@H](Cl)[C@H](OC)C3)[C@H](C)[C@@H](O)CC1=O)[C@H](C)C[C@@H]2OC` [Pimecrolimus], the CC50 at 24 h was over 50 µM. With `CCOC(=O)NNc1nncc2ccccc12` [Todralazine hydrochloride] the CC50 at 24 h was over 50 µM. `CCCCC(=O)O[C@]1(C(=O)CO)[C@@H](C)C[C@H]2[C@@H]3CCC4=CC(=O)C=C[C@]4(C)[C@@]3(F)[C@@H](O)C[C@@]21C` [Betamethasone valerate] showed a CC50 at 24 h of 77.9 µM. With `Cc1nc(N)nc(N)n1` [6-Methyl-1,3,5-triazine-2,4-diamine] the CC50 at 24 h was over 90 µM. Compound `C=C1C[C@@]23CC[C@H]4[C@@](C)(CCC[C@@]4(C)C(=O)O[C@@H]4O[C@H](CO)[C@@H](O)[C@H](O)[C@H]4O)[C@@H]2CC[C@]1(O[C@@H]1O[C@H](CO)[C@@H](O)[C@H](O)[C@H]1O[C@@H]1O[C@H](CO)[C@@H](O)[C@H](O[C@@H]2O[C@H](CO)[C@@H](O)[C@H](O)[C@H]2O)[C@H]1O)C3` [Rebaudioside A] has a CC50 at 24 h of over 90 µM. For `CC1CC(O)CC(C)(C)C1` (stereo not shown) [3,3,5-Trimethylcyclohexanol], the CC50 at 24 h was over 90 µM. In the case of `NCC[C@H](O)C(=O)N[C@@H]1C[C@H](N)[C@@H](O[C@H]2O[C@H](CN)[C@@H](O)[C@H](O)[C@H]2N)[C@H](O[C@@H]2O[C@H](CO)C(O)[C@H]2O)[C@H]1O` (stereo partly shown) [Butirosin disulfate], the CC50 at 24 h is reported as over 20 µM. With `CN1[C@@H]2CCC[C@H]1C[C@@H](NC(=O)c1nn(C)c3ccccc13)C2` [Granisetron hydrochloride] the CC50 at 24 h was over 50 µM. For `CN(C)CCCN(C)CCCN(C)C` [2,6,10-Trimethyl-2,6,10-triazaundecane], the CC50 at 24 h was over 90 µM. Work on `C=C(C)C(=O)OCCCCCCCCCCCCCCCCCC` [Stearyl methacrylate] yielded a CC50 at 24 h of over 20 µM. In the case of `O=c1[nH]c(=O)n([C@H]2CCCO2)cc1F` [Tegafur], the CC50 at 24 h is reported as over 90 µM. `CO[C@H]1C[C@H](O[C@H]2[C@H](C)[C@@H](O[C@@H]3O[C@H](C)C[C@H](N(C)C)[C@H]3O)[C@@H](C)C[C@@]3(CO3)C(=O)[C@H](C)[C@@H](O)[C@@H](C)[C@@H](C)OC(=O)[C@@H]2C)O[C@@H](C)[C@@H]1O` [Oleandomycin phosphate] gave a CC50 at 24 h of over 20 µM. `CC[C@@H](N)CO` [(2R)-2-Aminobutan-1-ol] showed a CC50 at 24 h of over 100 µM. Compound `COC(=O)c1ccc2cc(C(=O)OC)ccc2c1` [Dimethyl 2,6-naphthalenedicarboxylate] has a CC50 at 24 h of over 20 µM. Work on `COc1ccc2cc(CCC(C)=O)ccc2c1` [Nabumetone] yielded a CC50 at 24 h of over 20 µM. `CC(=O)OCC1=C(C(=O)O)N2C(=O)[C@@H](NC(=O)Cc3ccccc3)[C@H]2SC1` [Cefaloram] showed a CC50 at 24 h of over 50 µM. Work on `c1ccc2cc3c(ccc4ccccc43)cc2c1` [Benz(a)anthracene] yielded a CC50 at 24 h of over 90 µM. With `O=C1CCC(C2CCCCC2)CC1` [4-Cyclohexylcyclohexanone] the CC50 at 24 h was over 90 µM. In the case of `CC(C(=O)O)c1ccc(C(=O)c2ccccc2)s1` (stereo not shown) [Tiaprofenic acid], the CC50 at 24 h is reported as over 20 µM. In the case of `Cc1ccc(C2(O)CCN(CCCC(=O)c3ccc(F)cc3)CC2)cc1` [Moperone], the CC50 at 24 h is reported as 30.1 µM. With `C=COCCCCO` [4-(Ethenyloxy)butan-1-ol] the CC50 at 24 h was over 90 µM. With `C[N+]1(C)CCN(CC(O)(c2ccccc2)C2CCCCC2)CC1` (stereo not shown) [Hexocyclium] the CC50 at 24 h was over 50 µM. Compound `C=C(C)C(=O)OCCN(C)C` [2-(Dimethylamino)ethyl methacrylate] has a CC50 at 24 h of over 90 µM. For `O=S(=O)(c1ccc(O)cc1)c1ccc(O)cc1` [4,4'-Sulfonyldiphenol], the CC50 at 24 h was over 90 µM. For `O=C(Cn1c(=O)sc2ccc(Cl)cc21)N1CCN(CCO)CC1` [Tiaramide hydrochloride], the CC50 at 24 h was over 50 µM. `CCn1nc(Cc2ccccc2)cc1C1CCN(C[C@H]2C[C@H](N(C)[C@@H](C(=O)O)C(C)C)C[C@@H]2c2cccc(F)c2)CC1` [MK-578] showed a CC50 at 24 h of 66.4 µM. With `Cc1ccc(S(=O)(=O)N[C@@H](CCCCN)C(=O)CCl)cc1` [N-alpha-p-Tosyl-L-lysine chloromethyl ketone hydrochloride] the CC50 at 24 h was 15 µM. Compound `O=C(O)c1cccc(-c2noc(-c3ccccc3F)n2)c1` [Ataluren] has a CC50 at 24 h of over 50 µM. `CC(=O)OCC(=O)[C@@]1(O)[C@H](OC(C)=O)C[C@H]2[C@@H]3CCC4=CC(=O)C=C[C@]4(C)[C@@]3(F)[C@@H](O)C[C@@]21C` [Triamcinolone diacetate] showed a CC50 at 24 h of over 50 µM. For `CCCCCCOC(=O)c1cccnc1` [Hexyl nicotinate], the CC50 at 24 h was over 50 µM. In the case of `CC(C)(N)C#N` [2-Amino-2-methylpropionitrile], the CC50 at 24 h is reported as over 90 µM. Compound `CN(N=O)c1ccccc1` [Nitrosomethylaniline] has a CC50 at 24 h of over 90 µM. With `CC(C)COC(=O)c1ccccc1C(=O)OCC(C)C` [Diisobutyl phthalate] the CC50 at 24 h was over 90 µM. Compound `CN(Cc1cc(Br)cc(Br)c1N)C1CCCCC1` [Bromhexine hydrochloride] has a CC50 at 24 h of 42.9 µM. `C[C@@H]1C[C@H]2[C@@H]3CCC4=CC(=O)C=C[C@]4(C)[C@@]3(F)[C@@H](O)C[C@]2(C)[C@H]1C(=O)CO` [Desoximetasone] showed a CC50 at 24 h of over 50 µM. `CCCCCNCCCCC` [Dipentylamine] showed a CC50 at 24 h of over 90 µM. For `C[C@@H]1O[C@@H](OC[C@H]2O[C@@H](Oc3c(-c4ccc(OCCO)c(OCCO)c4)oc4cc(OCCO)cc(O)c4c3=O)[C@H](O)[C@@H](O)[C@@H]2O)[C@H](O)[C@H](O)[C@H]1O` [Troxerutin], the CC50 at 24 h was over 50 µM. `C=CCOc1ccccc1OCC(O)CNC(C)C` (stereo not shown) [Oxprenolol hydrochloride] gave a CC50 at 24 h of over 20 µM. `C=COC(=O)C(C)(C)CCCCCC` [Vinyl neodecanoate] gave a CC50 at 24 h of over 90 µM. `CCN(CC)CCOc1ccc2nc(N(C)C)sc2c1` [Diamthazole] showed a CC50 at 24 h of over 50 µM. For `Cc1cc2c(OCC(CNC(C)(C)C)OC(=O)c3ccccc3)cccc2[nH]1` (stereo not shown) [Bopindolol], the CC50 at 24 h was 42.5 µM. In the case of `Oc1cc(Cl)ccc1Cl` [2,5-Dichlorophenol], the CC50 at 24 h is reported as over 90 µM. Work on `Brc1nc2ccccc2s1` [2-Bromobenzothiazole] yielded a CC50 at 24 h of over 90 µM. `OCC(CBr)(CBr)CBr` [3-Bromo-2,2-bis(bromomethyl)propanol] showed a CC50 at 24 h of over 90 µM. With `CCN(CC)C1CCCCC1` [N,N-Diethylcyclohexylamine] the CC50 at 24 h was over 90 µM. Compound `COc1ccccc1N1CCN(CCCC(=O)c2ccc(F)cc2)CC1` [Fluanisone] has a CC50 at 24 h of over 50 µM. `CCN(Cc1ccccc1)c1ccccc1` [N-Ethyl-N-phenyl benzylamine] showed a CC50 at 24 h of over 90 µM. In the case of `C[C@]12CC[C@H]3[C@@H](CCC4=CC(=O)CC[C@@H]43)[C@@H]1CC[C@@H]2OC(=O)CCc1ccccc1` [Nandrolone phenpropionate], the CC50 at 24 h is reported as over 50 µM.

Same assay, conditions: rat, gh3-tre-luc cells, AC50 (uM) modified / 1000, Tox21_110001=Tox21_112608; viability, 1 nM T3 present, 24 h
`CN1C(=O)CC(=O)N(c2ccccc2)c2cc(Cl)ccc21` [Clobazam] gave a CC50 at 24 h of over 50 µM.

Same assay, conditions: rat, gh3-tre-luc cells, AC50 (uM) modified / 1000, Tox21_110001=Tox21_202349; viability, 1 nM T3 present, 24 h
`CCCCCc1cc(O)cc(O)c1` [Olivetol] showed a CC50 at 24 h of 78.4 µM.

Same assay, conditions: rat, gh3-tre-luc cells, AC50 (uM) modified / 1000, Tox21_110001=Tox21_303332; viability, 1 nM T3 present, 24 h
With `CCCCCc1cc(O)cc(O)c1` [Olivetol] the CC50 at 24 h was 75.4 µM.
